System: P5, P693 and CEM cells
Test: Mitochondrial membrane potential by JC-1 staining and flow cytometry
Assay type: cell-based, human
Conditions: 24 h, co-stimulation with cisplatin 2 µg/ml on top of DEX; Fig. 3a
Protocol: • (a) P5, P693 or CEM cells, either untreated (CO) or stimulated with cisplatin (CIS, 2 µg/ml) were incubated in the absence (white bars) or presence (black bars) of DEX (1 µM). 24 h later cells were stained with the cationic dye JC-1 which indicates mitochondrial depolarization by an increase in green fluorescence. The percentage of green-fluorescent cells was determined by flow cytometry. • (b) P5 cells were treated as described above. 6 or 24 h later mitochondrial fractions were prepared and assayed by Western blotting using a monoclonal antibody which specifically detects the 15 kDa cytochrome c protein. The results depicted here have been performed three times with similar outcome.
• (A) Cell culture. […] The mice were given 0.28 mg/L DEX in drinking water, and the amount of water consumed was monitored. […] The tumour volumes were measured using callipers, and calculated using, as an approximation, the formula for volume of a hemi-ellipsoid: π(width^2 x length)/6. […] Early apoptotic changes were identified by staining of cells with fluoresceinthiocyanate (FITC)-conjugated annexin V and propidium iodide (Becton Dickinson, Heidelberg, Germany) and analysed by flow cytometry (FACScan, Becton Dickinson) as described (Herr et al., EMBO J. 16 (1997), 6200-6208) • (E) Immunohistochemistry. […] Protein expression was detected by Western blotting as described (Herr et al., 1997). […]

N.N.[Cl][Pt][Cl] [cisplatin]
percentage of green fluorescence (mitochondrial damage): further enhanced

— patent EP1283052A1, “Pharmaceutical composition containing caspase-8 and /or caspase-9 useful for overcoming glucocorticoid- and cancer therapy-induced apoptosis of tumours” (Deutsches Krebsforschungszentrum Stiftung des öffentlichen …, priority 2001, dated 2003)
